According to paper PMC4700278, “Molecular and Biochemical Analysis of the Estrogenic and Proliferative Properties of Vitamin E Compounds” (Frontiers in Oncology, 2016):

What was measured:
ERα = biological target: T1, ERα (Homo sapiens, UniProt P03372); settings: MCF-7 cells; 500 μM δ-TP or δ-TT, 100 nM E2; 3 h; western blot, GAPDH control
T1 sequence (P03372 1-595): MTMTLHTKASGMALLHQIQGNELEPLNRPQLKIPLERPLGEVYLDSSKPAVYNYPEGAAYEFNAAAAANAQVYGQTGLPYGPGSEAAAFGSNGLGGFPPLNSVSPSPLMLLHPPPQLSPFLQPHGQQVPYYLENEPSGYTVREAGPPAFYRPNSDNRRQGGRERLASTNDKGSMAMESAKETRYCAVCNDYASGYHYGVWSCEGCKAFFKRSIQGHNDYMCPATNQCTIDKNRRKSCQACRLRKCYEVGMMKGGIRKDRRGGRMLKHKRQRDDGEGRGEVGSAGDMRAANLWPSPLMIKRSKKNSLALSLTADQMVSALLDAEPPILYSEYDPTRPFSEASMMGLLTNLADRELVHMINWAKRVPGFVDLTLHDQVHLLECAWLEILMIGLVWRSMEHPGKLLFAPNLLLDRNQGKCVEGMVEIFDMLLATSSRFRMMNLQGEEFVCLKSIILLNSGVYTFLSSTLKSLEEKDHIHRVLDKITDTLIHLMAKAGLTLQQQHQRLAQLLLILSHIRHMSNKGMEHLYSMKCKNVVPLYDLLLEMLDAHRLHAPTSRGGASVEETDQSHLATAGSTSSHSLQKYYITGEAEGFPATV
Method: Figure 3 Measurement of estrogenicity of tocols in vitro. (A) Dose–response curve of the effect of tocols on MCF-7 cells stably transfected with the ERE-β-globin-tk-Luc plasmid (MELN cells). […] Data shown are the mean values ± SEM from three independent experiments. […] MCF-7 extracts were analyzed for the presence of ERα by western blotting using GAPDH as a control. […] The western blot shown is representative of three independent experiments. The ratio of ERα to GAPDH levels in each experiment was determined densitometrically and normalized to control value (taken to be 1). (D) Effect of δ-tocols on estrogen response element-dependent luciferase activity in HELN cells, which are HELA cells transfected with either fully functional ERα or ERβ or their mutated versions containing a deletion the AB domain (ΔAB). […] Data shown are the mean values ± SEM from three independent experiments. […] Cells were treated with 500 μM δ-tocols in the presence or in the absence of ICI. The relative expression of TGFα, PR, and Ps2 (TFF1) after 16 h was analyzed by quantitative RT-PCR. Data shown are the mean values ± SEM from three independent experiments.

HMG-CoA reductase (HMGR) = biological target: T2, HMG-CoA reductase (HMGR) (Homo sapiens, UniProt P04035); experiment: HMG-CoA reductase activity in microsomal fraction of treated cells; type: cell-based; settings: MCF-7, T47D and MDA-MB-231 cells treated with 500 μM; compared to solvent vehicle-treated cells
T2 construct: endogenous in cells; host or cells: MCF-7, T47D, MDA-MB-231 (microsomal fraction)
T2 sequence (P04035 1-888): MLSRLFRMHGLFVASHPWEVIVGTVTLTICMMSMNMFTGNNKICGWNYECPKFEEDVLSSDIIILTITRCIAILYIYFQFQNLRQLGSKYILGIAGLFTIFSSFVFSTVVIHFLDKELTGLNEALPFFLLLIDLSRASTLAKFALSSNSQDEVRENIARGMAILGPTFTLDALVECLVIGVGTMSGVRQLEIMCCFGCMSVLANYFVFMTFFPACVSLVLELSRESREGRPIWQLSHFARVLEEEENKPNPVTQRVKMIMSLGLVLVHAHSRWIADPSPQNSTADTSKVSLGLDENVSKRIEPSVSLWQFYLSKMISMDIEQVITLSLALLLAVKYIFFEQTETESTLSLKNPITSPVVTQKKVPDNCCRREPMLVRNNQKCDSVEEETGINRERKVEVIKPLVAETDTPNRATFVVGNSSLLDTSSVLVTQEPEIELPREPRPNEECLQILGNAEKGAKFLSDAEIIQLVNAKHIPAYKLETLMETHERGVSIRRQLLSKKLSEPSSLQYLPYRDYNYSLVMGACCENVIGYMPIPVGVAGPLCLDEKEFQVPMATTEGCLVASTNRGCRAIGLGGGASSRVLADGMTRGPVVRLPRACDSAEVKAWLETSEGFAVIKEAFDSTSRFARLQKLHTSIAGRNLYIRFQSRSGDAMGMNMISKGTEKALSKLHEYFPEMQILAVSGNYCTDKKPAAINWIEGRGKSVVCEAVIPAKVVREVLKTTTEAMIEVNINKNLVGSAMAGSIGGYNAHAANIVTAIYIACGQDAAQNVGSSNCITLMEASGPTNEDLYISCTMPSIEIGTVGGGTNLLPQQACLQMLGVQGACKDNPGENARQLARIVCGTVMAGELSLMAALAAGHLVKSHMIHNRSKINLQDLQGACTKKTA
Method: Figure 4 Effect of tocol on ER(+) and ER(−) BC cell proliferation and HMG-CoA reductase activity. (A) Effect of δ-tocols on estrogen and non-estrogen-regulated growth of MCF-7, T47D, and MDA-MB-231 cells. […] Cells were also treated with 30 μM lovastatin (Lova) in the presence or absence of 5 mM M, as described in Section “Materials and Methods.” Values are shown as means and vertical bars represent SEM. The data were analyzed by two-way ANOVA, followed by Bonferroni post hoc test. ***P < 0.001, **P < 0.01, and *P < 0.05 in comparison with control or bare-linked specific control. Ns: not significant. (B) Effect of δ-TT on hydroxymethylglutaryl coenzyme A reductase (HMGR) activity in MCF-7, T47D, and MDA-MB-231 cells. […] Data shown are the mean values ± SEM from three independent experiments performed in triplicate.

Compound | degradation of ERα protein (ERα) | effect on HMGR activity (HMG-CoA reductase (HMGR))
Cc1cc(O)cc2c1OC(C)(CCCC(C)CCCC(C)CCCC(C)C)CC2 (stereo not shown) [δ-TP, δ-tocopherol] | not degraded | not
CC(C)=CCC/C(C)=C/CC/C(C)=C/CC[C@]1(C)CCc2cc(O)cc(C)c2O1 [δ-TT, δ-tocotrienol] | not degraded | inhibition of HMGR activity
